Article PMC8151276, “An Integrated Approach toward NanoBRET Tracers for Analysis of GPCR Ligand Engagement” (Molecules, 2021)

Biological target: T1, RXFP1 (Homo sapiens, UniProt Q9HBX9)
T1 construct: purchased Promega (in-house HiBiT-GPCR construct library, NanoBRET)
T1 sequence (Q9HBX9 1-757): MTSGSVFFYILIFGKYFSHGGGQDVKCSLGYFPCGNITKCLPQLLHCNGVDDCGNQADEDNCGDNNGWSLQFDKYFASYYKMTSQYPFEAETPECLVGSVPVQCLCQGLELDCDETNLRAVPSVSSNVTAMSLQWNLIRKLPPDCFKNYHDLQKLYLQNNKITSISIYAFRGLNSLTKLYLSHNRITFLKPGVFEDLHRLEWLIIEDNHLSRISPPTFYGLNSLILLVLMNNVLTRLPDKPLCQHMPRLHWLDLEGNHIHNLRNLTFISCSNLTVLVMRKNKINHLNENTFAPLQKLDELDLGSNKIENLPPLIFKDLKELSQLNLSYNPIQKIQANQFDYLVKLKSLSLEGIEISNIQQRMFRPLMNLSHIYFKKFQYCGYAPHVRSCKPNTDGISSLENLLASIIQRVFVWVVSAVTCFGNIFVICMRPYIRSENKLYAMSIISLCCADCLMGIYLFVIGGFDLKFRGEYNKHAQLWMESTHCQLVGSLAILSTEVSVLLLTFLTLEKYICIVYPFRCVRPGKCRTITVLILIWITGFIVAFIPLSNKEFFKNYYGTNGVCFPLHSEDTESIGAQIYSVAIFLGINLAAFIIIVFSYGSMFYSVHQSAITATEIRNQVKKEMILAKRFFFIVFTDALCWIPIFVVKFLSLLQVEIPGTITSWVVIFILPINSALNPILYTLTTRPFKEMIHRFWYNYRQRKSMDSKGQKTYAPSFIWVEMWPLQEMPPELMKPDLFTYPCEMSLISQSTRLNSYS
Test: NanoBRET screen HiBiT-RXFP1 in HEK293
Format: binding
Experimental: Each tracer candidate was screened across the entire library of HiBiT-GPCR constructs using NanoBRET as the detection modality. As depicted in Figure 4A, the specificity of interactions was evaluated through decrease in BRET due to competitive displacement of a bound tracer by excess parental compound. Each tracer was analyzed for binding to each HiBiT-GPCR fusion in the absence and in the presence of competing parental compound. Briefly, HEK293 cells were transfected with HiBiT-GPCR constructs diluted into promoterless DNA to reduce expression and maximize translocation to the cell surface. Each tracer candidate was then screened at concentrations of 1 μM and 0.1 μM across cells expressing these fusions. Cells were treated for 1.5 h with tracer either alone or in the presence of 20 μM competing parental compound (i.e., control). BRET was measured upon addition of purified LgBiT and subsequent complementation with HiBiT genetically fused to a GPCR. The specificity of interactions was assessed through a decrease in BRET signal due to competitive displacement of the bound tracer. To further gauge the robustness of these interactions, the fold response over the control (i.e., BRETtracer/BRETcontrol) was calculated. We chose a 1.5-fold response, which translates to ≥7-fold signal over noise as the minimal threshold required to score an interaction as positive.
HiBiT-GPCR DNA constructs were diluted in 10 mM Tris pH 8 to a final concentration of 0.01 μg/μL, arrayed in 96-well plates and stored at −20 °C. For transfection, HEK293 cells were suspended in Opti-MEM (without phenol red) supplemented with 2% fetal bovine serum (Seradigm) and 100 units/mL penicillin–streptomycin (Gibco) at a final concentration of 220,000 cells/mL and dispensed into white 96-well plates at 90 μL/well. Subsequent transfections and screens were carried using an Agilent Bravo Automated Liquid Handling Platform. First, the 96-well HiBiT DNA arrays were diluted 25-fold in Opti-MEM (without serum or phenol red) to a final concentration of 0.0004 μg/μL and 20 μL of the diluted DNAs were transferred into new 96-well plates. Next, promoterless carrier DNA (1 μg/μL) was diluted 25-fold (0.04 μg/μL) and then dispensed into the diluted arrays at 20 μL/well. Following brief mixing, Viafect transfection reagent (Promega) diluted 16-fold into Opti-MEM was dispensed into the plates at 40 μL/well. After mixing by pipetting, plates were incubated for 10 min on the pipetting station deck. The DNA-transfection reagent complexes were then added to plates containing cells. To facilitate the screen, 10 μL of DNA-transfection reagent complexes were added in duplicates to the top 4 and bottom 4 rows, resulting in two identical 48-well arrays per plate. Plates with transfected cells were incubated for 18–20 h at 37 °C/5% CO2. A screen of each tracer across the entire library using two different concentrations requires duplicate plates of transfected cells. Depending on the number of tracers being screened, transfections can be scaled up using the same ratios. The next day, for each tracer, four 20× screening solutions in tracer dilution buffer (Promega) were prepared: two duplicates at final concentration of 20 μM and two duplicates at a final concentration of 2 μM. […] The four resulting solutions were diluted 4-fold in Opti-MEM without serum or phenol red to generate 5× solutions (5 µM and 0.5 µM tracer +/− 100 μM competing compound). To screen the library, a BioTek MultiFlo FX liquid dispenser was used to dispense 22.5 µL of tracer solution to the top 4 rows and 22.5 µL tracer + competing compound solution to the 4 bottom rows. Plates were briefly mixed on an orbital shaker and incubated for 1.5 h at room temperature. […] Plates were briefly mixed on an orbital shaker and incubated for 15 min to allow complementation.

COc1ccc2c(n1)c(CCNC(C)=O)cn2CCNC(=O)CCc1ccc2n1[B-](F)(F)[N+]1=C(c3ccc[nH]3)C=CC1=C2 [Azamelatonin-1-NB590]
NanoBRET Fold Response (0.1μM tracer): 1.38 | NanoBRET Fold Response (1μM tracer): 1.20

CC(C)N(CC[C@H](c1ccccc1)c1cc(CCNC(=O)c2ccc(CNC(=O)CCc3ccc4n3[B-](F)(F)[N+]3=C(c5ccc[nH]5)C=CC3=C4)cc2)ccc1O)C(C)C [Tolterodine-BZ-NB590]
NanoBRET Fold Response (RXFP1, tracer 0.1μM): 1.12 | NanoBRET Fold Response (RXFP1, tracer 1μM): 1.23

O=C(CCc1ccc2n1[B-](F)(F)[N+]1=C(c3ccc[nH]3)C=CC1=C2)NCCOCCOCCNC(=O)OCCOCCN1CCN(C2=Nc3ccccc3Sc3ccccc32)CC1 [Quetiapine-a-2-NB590]
NanoBRET Fold Response (RXFP1, tracer 0.1μM): 0.53 | NanoBRET Fold Response (RXFP1, tracer 1μM): 1.01

Cc1cc2c(s1)Nc1ccccc1N=C2N1CCN(CCCNC(=O)CCOCCOCCOCCOCCNC(=O)CCc2ccc3n2[B-](F)(F)[N+]2=C(c4ccc[nH]4)C=CC2=C3)CC1 [Olanzapine-a-2-NB590]
NanoBRET Fold Response (RXFP1, tracer 0.1μM): 1.25 | NanoBRET Fold Response (RXFP1, tracer 1μM): 0.79

O=C(CCc1ccc2n1[B-](F)(F)[N+]1=C(c3ccc[nH]3)C=CC1=C2)NCc1ccc(C(=O)NCCOCCOCCNCC(O)COc2cccc3ccccc23)cc1 (centres unmarked) [Propranolol-3-NB590]
NanoBRET Fold Response (RXFP1, 0.1μM): 0.90 | NanoBRET Fold Response (RXFP1, 1μM): 0.90

CN1CCN(C2=Nc3cc(Cl)ccc3N(CC(=O)NCCOCCOCCOCCOCCNC(=O)CCc3ccc4n3[B-](F)(F)[N+]3=C(c5ccc[nH]5)C=CC3=C4)c3ccccc32)CC1 [Clozapine-c-2-NB590]
NanoBRET Fold Response (RXFP1, 0.1μM tracer): 0.85 | NanoBRET Fold Response (RXFP1, 1μM tracer): 1.27

O=C(CCc1ccc2n1[B-](F)(F)[N+]1=C(c3ccc[nH]3)C=CC1=C2)NCc1ccc(C(=O)NCCOCCC(=O)N[C@@H]2CC[C@@]3(O)[C@H]4Cc5ccc(O)c6c5[C@@]3(CCN4CC3CC3)[C@H]2O6)cc1 [Naltrexone-3-NB590]
NanoBRET Fold Response (RXFP1, tracer 0.1μM): 1.31 | NanoBRET Fold Response (RXFP1, tracer 1μM): 1.24

CC(C)N(CC[C@H](c1ccccc1)c1cc(CCNC(=O)CCOCCOCCOCCOCCNC(=O)CCc2ccc3n2[B-](F)(F)[N+]2=C(c4ccc[nH]4)C=CC2=C3)ccc1O)C(C)C [Tolterodine-2-NB590]
NanoBRET Fold Response (RXFP1, tracer 0.1μM): 1.11 | NanoBRET Fold Response (RXFP1, tracer 1μM): 0.81

Cc1nc2n(c(=O)c1CCN1CCC(c3noc4cc(F)ccc34)CC1)CCCC2OC(=O)NCCOCCOCCOCCOCCNC(=O)CCc1ccc2n1[B-](F)(F)[N+]1=C(c3ccc[nH]3)C=CC1=C2 (centres unmarked) [Risperidone-2-NB590]
NanoBRET Fold Response (RXFP1, tracer 0.1μM): 1.26 | NanoBRET Fold Response (RXFP1, tracer 1μM): 0.90

O=C(CCOCCOCCOCCOCCNC(=O)CCc1ccc2n1[B-](F)(F)[N+]1=C(c3ccc[nH]3)C=CC1=C2)NCCCN1CCN(C2=Nc3cc(Cl)ccc3Nc3ccccc32)CC1 [Clozapine-a-2-NB590]
NanoBRET Fold Response (RXFP1, 0.1μM tracer): 1.12 | NanoBRET Fold Response (RXFP1, 1μM tracer): 1.23

COc1ccc2[nH]c(-c3ccc(CNC(=O)CCOCCOCCOCCOCCNC(=O)CCc4ccc5n4[B-](F)(F)[N+]4=C(c6ccc[nH]6)C=CC4=C5)cc3)c(CCNC(C)=O)c2n1 [AzomelatoninICO9-2-NB590]
NanoBRET Fold Response (0.1μM tracer): 1.23 | NanoBRET Fold Response (1μM tracer): 1.24

CN1CCN(C2=Nc3cc(Cl)ccc3Nc3ccc(CNC(=O)CCOCCOCCOCCOCCNC(=O)CCc4ccc5n4[B-](F)(F)[N+]4=C(c6ccc[nH]6)C=CC4=C5)cc32)CC1 [Clozapine-b-2-NB590]
NanoBRET Fold Response (RXFP1, 0.1μM tracer): 0.90 | NanoBRET Fold Response (RXFP1, 1μM tracer): 0.75

COc1ccccc1N1CCN(CCCCN2C(=O)c3ccc(CNC(=O)CCOCCNC(=O)c4ccc(CNC(=O)CCc5ccc6n5[B-](F)(F)[N+]5=C(c7ccc[nH]7)C=CC5=C6)cc4)cc3C2=O)CC1 [NAN-190-3-NB590]
NanoBRET Fold Response (RXFP1, tracer 0.1μM): 0.88 | NanoBRET Fold Response (RXFP1, tracer 1μM): 0.90

N#CN=C(NCCCOc1cccc(CN2CCCCC2)c1)NCCNC(=O)CCOCCOCCOCCOCCNC(=O)CCc1ccc2n1[B-](F)(F)[N+]1=C(c3ccc[nH]3)C=CC1=C2 [Aminopotentidine-2-NB590]
NanoBRET Fold Response (RXFP1, tracer 0.1μM): 0.79 | NanoBRET Fold Response (RXFP1, tracer 1μM): 1.28

CN(C)CCC=C1c2ccccc2CCc2ccc(C(=O)NCCNC(=O)CCOCCOCCOCCOCCNC(=O)CCc3ccc4n3[B-](F)(F)[N+]3=C(c5ccc[nH]5)C=CC3=C4)cc21 [Amitriptyline-b-2-NB590]
NanoBRET Fold Response (tracer at 0.1μM): 0.90 | NanoBRET Fold Response (tracer at 1μM): 1.13

COc1ccccc1N1CCN(CCCCN2C(=O)c3ccc(CNC(=O)CCOCCOCCOCCOCCNC(=O)CCc4ccc5n4[B-](F)(F)[N+]4=C(c6ccc[nH]6)C=CC4=C5)cc3C2=O)CC1 [NAN-190-2-NB590]
NanoBRET Fold Response (RXFP1, tracer 0.1μM): 0.78 | NanoBRET Fold Response (RXFP1, tracer 1μM): 0.92

O=C(CCOCCOCCOCCOCCNC(=O)CCc1ccc2n1[B-](F)(F)[N+]1=C(c3ccc[nH]3)C=CC1=C2)NCCCN1CCN(C2=Nc3ccccc3Oc3ccc(Cl)cc32)CC1 [Loxapine-a-2-NB590]
NanoBRET Fold Response (RXFP1, tracer 0.1μM): 0.94 | NanoBRET Fold Response (RXFP1, tracer 1μM): 0.80

CCCn1c(=O)c2[nH]c(-c3ccc(OCC(=O)NCCNC(=O)CCOCCNC(=O)c4ccc(CNC(=O)CCc5ccc6n5[B-](F)(F)[N+]5=C(c7ccc[nH]7)C=CC5=C6)cc4)cc3)nc2n(CCC)c1=O [XAC-3-NB590]
NanoBRET Fold Response (RXFP1, tracer 0.1μM): 1.04 | NanoBRET Fold Response (RXFP1, tracer 1μM): 0.93

CCOC(=O)c1cc(C#N)c(N2CCC(C(=O)NS(=O)(=O)Cc3ccccc3/C=C/C(=O)NCCNC(=O)CCc3ccc4n3[B-](F)(F)[N+]3=C(c5ccc[nH]5)C=CC3=C4)CC2)nc1C [AZD1283-1-NB590]
NanoBRET Fold Response (RXFP1, 0.1μM): 1.16 | NanoBRET Fold Response (RXFP1, 1μM): 0.49
